Measurements: patent US6087375A, “Methods of treating or preventing thromboses” (priority 1999, dated 2000)

Test system: human platelets (thrombin-induced aggregation)
Assay: Thrombin-induced platelet aggregation assay
Assay type: cell-based
Method: The conjugate was prepared according to the following protocol. A 15 μM solution of RSA in PBS was reacted with 200 μM argatroban-C6 NHS ester for 1 hour at room temperature. Sham samples consist of the RSA incubated for the same length of time at RT in 2% DMSO in PBS. Each of the samples was then concentrated to a final volume of 1.5 mL using Amicon Centricon 30 filtration/concentration devices. The concentrated samples were then desalted on Pierce's 5 ML Kwiksep excellulose plastic desalting columns. The excluded volumes containing RSA or argatroban-C6-RSA were then subjected to BCA microprotein estimation and lyophilization. In addition, these samples were analyzed by LC/MS, sandwich ELISA assays (described above) to measure thrombin binding and immunoblotting.
Platelets were purified from freshly drawn human blood diluted with the anticoagulant buffer ACD (9 mls of blood to 1 mL of buffer). The blood was centrifuged for 25 min at 200×g. The platelet-rich plasma (PRP) was recovered with a plastic pipette. The PRP was centrifuged for 15 min at 3,000×g in v-shaped plastic tubes. The supernatant, called platelet-poor plasma (PPP), was then removed and saved, and the platelets were resuspended in buffer A1 (35 mM citric acid, 103 mM NaCl, 5 mM each of glucose and KCl, 2 mM CaCl2, 1 mM […], 3.5 mg/mL BSA, 0.1 μM PGE1 and 0.3 U/mL of apyrase at pH 6.5). The resuspended platelets were washed 2 times with buffer A1. After the last wash, the platelets were resuspended in buffer B1 (137 mM NaCl, 2.6 mM KCL 12 mM NaHCO3, 0.3 mM NaH2 PO4, 3 mM CaCl2, 1 mM MgCl2, 5 mM glucose, 3.5 mg/mL BSA and […] apyrase at pH 7.4) at a density of 3×10^5 /μL. The platelets were maintained at room temperature until ready for use.
Various parameters relevant to platelet aggregation were obtained on a four channel aggregometer manufactured by AFFI BIO. In brief, the reaction chambers are warmed to 37° C. and are agitated at a rate of 1,200 rpm. Light is passed through the reaction chambers, with 300 μL of buffer B1 used to set the 100% transmittance level for each chamber. From a series of standardization experiments, it was determined that 0.5 U/mL of human thrombin (Sigma) is an optimal aggregating concentration of thrombin and is used to set. the 0% transmittance for the instrument. Standard conditions for the assay involve incubating 250 μL of the platelet suspension with or without 50 μL of inhibitor diluted in buffer in the reaction chambers for 60 seconds at 37° C. The value of transmittance is now set as 0%. After this measurement, thrombin is added to the reaction chambers (20 μl) and transmittance is measured for the next 6 minutes. Samples were performed in triplicate.

Question: Which results are given for “RSA-argatroban-C6 conjugate: rabbit serum albumin covalently bound by argatroban-C6 NHS ester molecules”?
Answer: IC50 (estimated concentration which inhibits 50% of the aggregation) (0.5 U/mL human thrombin, 37° C., conjugate: average of 10 argatrobans/RSA used): 4.5 to 7.5 µM; delay in thrombin-induced platelet aggregation (FIG. 11, versus sham-treated RSA): clearly delayed platelet aggregation
